Data reported in PubChem BioAssay AID1963964 (Molecular Pharmacology Branch, DTP, NCI, 2024).
One block for each compound: values may come before it.

Test system: 997726-040-R-J2-PDC tumor spheroids, viability
Test: Anticancer human tumor 997726-040-R-J2-PDC patient-derived squamous cell lung carcinoma cell line growth inhibition [PI3K]
Details: spheroids with HUVEC and MSC; for IC50: curve of first compound; for viability, T/C: stronger effect = lower value
In short: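 Tumor cells grown as multi-cell spheroids with HUVEC endothelial cells and MSC fibroblast-like stroma were treated with targeted agents combined with inavolisib, alpelisib, duvelisib or copanlisib. Doses fell in half-log steps from near clinical Cmax, else from 10 microM. Viability was measured.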

[1] = second compound 0.0316 µM, first compound 0.0316 µM
[2] = second compound 0.0316 µM, first compound 0.1 µM
[3] = second compound 0.0316 µM, first compound 0.316 µM
[4] = second compound 0.0316 µM, first compound 1 µM
[5] = second compound 0.0316 µM, first compound 3.16 µM
[6] = second compound 0.0316 µM, first compound 10 µM
[7] = second compound 0.1 µM, first compound 0.0316 µM
[8] = second compound 0.1 µM, first compound 0.1 µM
[9] = second compound 0.1 µM, first compound 0.316 µM
[10] = second compound 0.1 µM, first compound 1 µM
[11] = second compound 0.1 µM, first compound 3.16 µM
[12] = second compound 0.1 µM, first compound 10 µM
[13] = second compound 0.316 µM, first compound 0.0316 µM
[14] = second compound 0.316 µM, first compound 0.1 µM
[15] = second compound 0.316 µM, first compound 0.316 µM
[16] = second compound 0.316 µM, first compound 1 µM
[17] = second compound 0.316 µM, first compound 3.16 µM
[18] = second compound 0.316 µM, first compound 10 µM
[19] = second compound 1 µM, first compound 0.0316 µM
[20] = second compound 1 µM, first compound 0.1 µM
[21] = second compound 1 µM, first compound 0.316 µM
[22] = second compound 1 µM, first compound 1 µM
[23] = second compound 1 µM, first compound 3.16 µM
[24] = second compound 1 µM, first compound 10 µM
[25] = second compound 3.16 µM, first compound 0.0316 µM
[26] = second compound 3.16 µM, first compound 0.1 µM
[27] = second compound 3.16 µM, first compound 0.316 µM
[28] = second compound 3.16 µM, first compound 1 µM
[29] = second compound 3.16 µM, first compound 3.16 µM
[30] = second compound 3.16 µM, first compound 10 µM
[31] = second compound 10 µM, first compound 0.0316 µM
[32] = second compound 10 µM, first compound 0.1 µM
[33] = second compound 10 µM, first compound 0.316 µM
[34] = second compound 10 µM, first compound 1 µM
[35] = second compound 10 µM, first compound 3.16 µM
[36] = second compound 10 µM, first compound 10 µM
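Also: spheroids exposed to compounds for seven days before readout.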

IC50 (second compound 0.0316 µM): 6.13 µM
IC50 (second compound 0.1 µM): 5.14 µM
IC50 (second compound 0.316 µM): 2.49 µM
IC50 (second compound 1 µM): < 0.0316 µM
IC50 (second compound 3.16 µM): < 0.0316 µM
IC50 (second compound 10 µM): < 0.0316 µM
Structure (SMILES): CC1(C)CCC(CN2CCN(c3ccc(C(=O)NS(=O)(=O)c4ccc(NCC5CCOCC5)c([N+](=O)[O-])c4)c(Oc4cnc5[nH]ccc5c4)c3)CC2)=C(c2ccc(Cl)cc2)C1 + Cc1nc(NC(=O)N2CCCC2C(N)=O)sc1-c1ccnc(C(C)(C)C(F)(F)F)c1
viability, T/C [1]: 84.2%
viability, T/C [2]: 90.8%
viability, T/C [3]: 86.1%
viability, T/C [4]: 91.3%
viability, T/C [5]: 76%
viability, T/C [6]: 30.9%
viability, T/C [7]: 73%
viability, T/C [8]: 71.8%
viability, T/C [9]: 74.9%
viability, T/C [10]: 75.5%
viability, T/C [11]: 67.4%
viability, T/C [12]: 25.7%
viability, T/C [13]: 58.3%
viability, T/C [14]: 58.6%
viability, T/C [15]: 56.2%
viability, T/C [16]: 53.6%
viability, T/C [17]: 49.5%
viability, T/C [18]: 25.6%
viability, T/C [19]: 48.9%
viability, T/C [20]: 41%
viability, T/C [21]: 39%
viability, T/C [22]: 39.5%
viability, T/C [23]: 39.2%
viability, T/C [24]: 11.1%
viability, T/C [25]: 25%
viability, T/C [26]: 28.1%
viability, T/C [27]: 27.2%
viability, T/C [28]: 26.2%
viability, T/C [29]: 24.5%
viability, T/C [30]: 8.65%
viability, T/C [31]: 14.8%
viability, T/C [32]: 10.8%
viability, T/C [33]: 7.16%
viability, T/C [34]: 6.93%
viability, T/C [35]: 5.25%
viability, T/C [36]: 2.97%

IC50 (second compound 0.0316 µM): 6.89 µM
IC50 (second compound 0.1 µM): 6 µM
IC50 (second compound 0.316 µM): 4.66 µM
IC50 (second compound 1 µM): 0.0316 µM
IC50 (second compound 3.16 µM): < 0.0316 µM
IC50 (second compound 10 µM): < 0.0316 µM
Structure (SMILES): CCCS(=O)(=O)Nc1ccc(F)c(C(=O)c2c[nH]c3ncc(-c4ccc(Cl)cc4)cc23)c1F + Cc1nc(NC(=O)N2CCCC2C(N)=O)sc1-c1ccnc(C(C)(C)C(F)(F)F)c1
viability, T/C [1]: 88.6%
viability, T/C [2]: 93.5%
viability, T/C [3]: 103%
viability, T/C [4]: 122%
viability, T/C [5]: 103%
viability, T/C [6]: 25%
viability, T/C [7]: 76.4%
viability, T/C [8]: 80.5%
viability, T/C [9]: 80.5%
viability, T/C [10]: 95.7%
viability, T/C [11]: 88.4%
viability, T/C [12]: 22.6%
viability, T/C [13]: 55.6%
viability, T/C [14]: 62.3%
viability, T/C [15]: 69.8%
viability, T/C [16]: 63.7%
viability, T/C [17]: 66.9%
viability, T/C [18]: 23.3%
viability, T/C [19]: 41.9%
viability, T/C [20]: 40.5%
viability, T/C [21]: 48.3%
viability, T/C [22]: 57.1%
viability, T/C [23]: 52%
viability, T/C [24]: 18.1%
viability, T/C [25]: 29.2%
viability, T/C [26]: 31.4%
viability, T/C [27]: 31.7%
viability, T/C [28]: 34.7%
viability, T/C [29]: 31.1%
viability, T/C [30]: 17.9%
viability, T/C [31]: 16.4%
viability, T/C [32]: 16.9%
viability, T/C [33]: 13.8%
viability, T/C [34]: 17.1%
viability, T/C [35]: 11.9%
viability, T/C [36]: 7.69%
